One series deals with ES cells. As to the kind of experiment: Toxic effects of inhibitors in ES cell monolayer differentiation cultures. The series is classed as cell-based, mouse. The following applies: 4 μM. The text has this: (§1) This is as described in detail in Ying et al., 2003b. Briefly, ES cells were washed to remove all traces of serum and then plated on gelatin-coated tissue culture plastic at a density of 1>10^4 cells/cm^2 in N2B27 serum-free medium. N2B27 consists of a 1:1 ratio of DM/F12 and Neurobasal media supplemental with 0.5% N2 (made in house as described in (Ying et al., 2003b)), 0.5% B27 (Gibco) and 2-mercaptoethanol. Media was changed every second day.
(§2) In some experiments, the culture medium was supplemented with 100 units/ml LIF and with 10% FCS. The MAPK inhibitor PD184352 (gift of P. Cohen, Univ Dundee) was used at a concentration of 4 μM. The gamma secretase inhibitor (Calbiochem cat. 565771) was used at a concentration of 4 μM.

Another series relates to NotchIC cells. As to the kind of experiment: Monolayer differentiation of NotchIC ES cells, sox1-GFP by FACS. The series is classed as cell-based, mouse. Conditions: 4 μM inhibitor, sox1-GFP positive cells by FACS.
Description: Intact cultures were stained for Oct4 on day 5 to visualise undifferentiated ES cells.
as §1, §2

As to `O=C(NOCC1CC1)c1ccc(F)c(F)c1Nc1ccc(I)cc1Cl` [PD184352], the “toxic effects over the time course of the experiments” value with ES cells is “Neither of these inhibitors had any obvious toxic effects”. Moreover, the “induction of sox1 in NotchIC cells” value with NotchIC cells is recorded as “able to block induction of sox1”.

On to `Cc1c[nH]c(/C=C2\C(=O)Nc3ccccc32)c1CCC(=O)O` [SU5402], for which, in the series on NotchIC cells, the “induction of sox1 in NotchIC cells” value is recorded as “able to block induction of sox1”.
